Data published in patent publication US6323001A, “Increasing the trehalose content of organisms by transforming them with combinations of the structural genes for trehalose synthase” (BTG International Ltd., priority 1994, dated 2001).

Target: T1, Tre6P synthase activity of truncated trehalose synthase (Saccharomyces cerevisiae, UniProt Q00764)
T1 construct: contained the 57 kDa short chain; made in house; host or cells: baker's yeast (native enzyme, proteolytically truncated during purification)
T1 sequence (Q00764 1-495): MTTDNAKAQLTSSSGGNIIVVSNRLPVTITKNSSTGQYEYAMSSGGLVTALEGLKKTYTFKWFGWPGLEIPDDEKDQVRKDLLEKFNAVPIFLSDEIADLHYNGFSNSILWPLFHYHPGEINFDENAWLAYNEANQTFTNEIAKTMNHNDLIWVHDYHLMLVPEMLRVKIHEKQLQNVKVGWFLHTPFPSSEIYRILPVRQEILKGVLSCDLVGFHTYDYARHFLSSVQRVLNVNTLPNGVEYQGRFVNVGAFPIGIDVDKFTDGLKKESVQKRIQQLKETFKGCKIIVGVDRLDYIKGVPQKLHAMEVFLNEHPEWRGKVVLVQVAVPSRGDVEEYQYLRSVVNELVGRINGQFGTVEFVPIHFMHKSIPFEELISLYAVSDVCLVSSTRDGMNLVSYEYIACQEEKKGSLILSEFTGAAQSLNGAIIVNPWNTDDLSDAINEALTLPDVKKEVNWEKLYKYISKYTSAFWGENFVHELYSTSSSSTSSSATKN
Test: Tre6P synthase assay of truncated trehalose synthase
Format: biochemical, baker's yeast
Settings: 10 mM G6P, 5 mM UDPG, 5 mM F6P, without phosphate = 100%
Protocol: With microbial materials, Tre6Pase and Tre6P synthase standard assays and other kinetic measurements were made as described by Londesborough & Vuorio [(1991) loc. cit.] except that the standard Tre6P synthase assay mixture contained 5 mM F6P unless stated otherwise.
Truncated trehalose synthase containing the short (57 kDa) chain and the 86 and 93 kDa long chain fragments was prepared according to the method of Londesborough & Vuorio (1991) loc. cit.] for proteolytically activated TPS/P complex. Tre6P synthase and Tre6Pase activities were assayed as described by Londesborough & Vuorio [(1991) loc. cit.]. [N-ethyl-1-^14C]-maleimide (ethyl-labelled NEM; 40 mCi/mmol) was NEC-454 from New England Nuclear. N-ethyl-[2,3-^14 C]-maleimide (ring-labelled NEM; 6 mCi/mmol) was CFA 293 from Amersham International. Both were obtained as solutions in n-pentane and the manufacturer's stated specific activities were assumed to be correct. Unlabelled N-ethyl-maleimide (NEM) was E-3876 from Sigma. It was dissolved in 25 mM HEPES pH 7.0 immediately before use and standardized by absorption measurements at 305 nm, assuming an E^mM of 0.62.
Truncated trehalose synthase was prepared as described by Londesborough & Vuorio [(1991) loc. cit.] and contained the 57 kDa short chain and 86 and 93 kDa fragments of the long chain. Intact trehalose synthase was prepared as in Example 1. Kinetic assays were done at 30° C. as described in General Methods and Materials.

## O=P(O)(O)O [phosphate, K phosphate]
1.3 mM added K phosphate pH 6.8
  Tre6P synthase activity, Truncated Enzyme: 94%
4.0 mM added K phosphate pH 6.8
  Tre6P synthase activity, Truncated Enzyme: 83%
